Assay results from publication PMC6407913, “DREADD Agonist 21 Is an Effective Agonist for Muscarinic-Based DREADDs in Vitro and in Vivo” (ACS Pharmacology & Translational Science, 2018).
Where “and” joins values, the source holds several entries; their conditions need not be identical. Equal entries are not always repeated. Where two headings read alike, the source gives them in different places.

Experiments:
Assay in all cases: NIMH PDSP radioligand binding, membranes
5-HT1A = target: T1, 5-HT1A (Homo sapiens, UniProt P08908)
T1 construct: NIMH PDSP
T1 sequence (P08908 whole entry, species assumed): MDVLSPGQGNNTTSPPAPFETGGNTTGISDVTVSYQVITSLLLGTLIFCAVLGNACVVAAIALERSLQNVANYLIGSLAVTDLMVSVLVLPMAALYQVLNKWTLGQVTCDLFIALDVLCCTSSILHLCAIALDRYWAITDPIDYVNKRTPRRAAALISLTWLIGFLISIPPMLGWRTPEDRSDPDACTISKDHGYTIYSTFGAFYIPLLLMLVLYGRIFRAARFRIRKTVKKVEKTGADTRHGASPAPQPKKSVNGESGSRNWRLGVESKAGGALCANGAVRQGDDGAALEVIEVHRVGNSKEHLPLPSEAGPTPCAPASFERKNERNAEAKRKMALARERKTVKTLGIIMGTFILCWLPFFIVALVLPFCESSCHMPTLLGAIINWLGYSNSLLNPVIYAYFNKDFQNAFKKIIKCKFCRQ
Protocol: (§1) Radioligand binding assays with membrane preparations to determine binding affinity were carried out as outlined before[540] and by the National Institute of Mental Health’s Psychoactive Drug Screening Program (NIMH PDSP) (https://pdsp.unc.edu/), Contract # HHSN-271–2013–00017-C. The NIMH PDSP is Directed by B.L.R. at the University of North Carolina at Chapel Hill, Chapel Hill, NC, and Project Officer Jamie Driscoll at NIMH, Bethesda, MD.

5-HT1D = 5-HT1D (Homo sapiens, UniProt P28221)
Protocol: as §1

5-HT1E = 5-HT1E (Homo sapiens, UniProt P28566)
5-HT1E, sequence (P28566 whole entry, species assumed): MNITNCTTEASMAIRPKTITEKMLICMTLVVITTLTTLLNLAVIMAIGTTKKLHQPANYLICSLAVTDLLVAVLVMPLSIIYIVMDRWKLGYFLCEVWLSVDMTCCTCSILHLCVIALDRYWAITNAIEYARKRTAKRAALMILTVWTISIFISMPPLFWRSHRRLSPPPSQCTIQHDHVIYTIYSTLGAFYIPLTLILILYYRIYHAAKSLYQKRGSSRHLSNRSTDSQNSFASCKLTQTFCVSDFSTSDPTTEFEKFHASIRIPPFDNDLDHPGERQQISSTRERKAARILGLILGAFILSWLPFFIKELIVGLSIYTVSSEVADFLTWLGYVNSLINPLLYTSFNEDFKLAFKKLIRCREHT
Protocol: as §1

5-HT2A = 5-HT2A (Homo sapiens, UniProt P28223)
Protocol: as §1

5-HT3 = 5-HT3 (Homo sapiens, UniProt P46098)
Protocol: as §1

5-HT4 = target: T2, 5-HT4 (Homo sapiens, UniProt Q13639)
T2 construct: NIMH PDSP
Protocol: as §1

5-HT6 = target: T3, 5-HT6 (Homo sapiens, UniProt P50406)
T3 construct: NIMH PDSP
Protocol: as §1

5-HT7 = target: T4, 5-HT7 (Homo sapiens, UniProt P34969)
T4 construct: NIMH PDSP
T4 sequence (P34969 whole entry, species assumed): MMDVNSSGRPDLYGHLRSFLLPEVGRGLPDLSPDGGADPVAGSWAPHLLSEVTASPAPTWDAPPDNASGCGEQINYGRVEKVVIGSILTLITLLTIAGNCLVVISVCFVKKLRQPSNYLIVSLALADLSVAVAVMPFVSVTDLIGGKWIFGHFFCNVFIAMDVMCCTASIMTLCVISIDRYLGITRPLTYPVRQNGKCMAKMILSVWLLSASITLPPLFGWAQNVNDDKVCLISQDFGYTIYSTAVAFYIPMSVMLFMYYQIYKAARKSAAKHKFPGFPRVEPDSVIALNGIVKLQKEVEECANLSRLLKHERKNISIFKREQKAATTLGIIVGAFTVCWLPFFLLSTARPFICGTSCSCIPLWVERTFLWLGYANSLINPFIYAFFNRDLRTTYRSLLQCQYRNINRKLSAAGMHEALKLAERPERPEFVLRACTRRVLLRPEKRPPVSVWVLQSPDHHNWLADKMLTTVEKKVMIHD
Protocol: as §1

Alpha1D = target: T5, Alpha1D (Homo sapiens, UniProt P25100)
T5 construct: NIMH PDSP
T5 sequence (P25100 1-572): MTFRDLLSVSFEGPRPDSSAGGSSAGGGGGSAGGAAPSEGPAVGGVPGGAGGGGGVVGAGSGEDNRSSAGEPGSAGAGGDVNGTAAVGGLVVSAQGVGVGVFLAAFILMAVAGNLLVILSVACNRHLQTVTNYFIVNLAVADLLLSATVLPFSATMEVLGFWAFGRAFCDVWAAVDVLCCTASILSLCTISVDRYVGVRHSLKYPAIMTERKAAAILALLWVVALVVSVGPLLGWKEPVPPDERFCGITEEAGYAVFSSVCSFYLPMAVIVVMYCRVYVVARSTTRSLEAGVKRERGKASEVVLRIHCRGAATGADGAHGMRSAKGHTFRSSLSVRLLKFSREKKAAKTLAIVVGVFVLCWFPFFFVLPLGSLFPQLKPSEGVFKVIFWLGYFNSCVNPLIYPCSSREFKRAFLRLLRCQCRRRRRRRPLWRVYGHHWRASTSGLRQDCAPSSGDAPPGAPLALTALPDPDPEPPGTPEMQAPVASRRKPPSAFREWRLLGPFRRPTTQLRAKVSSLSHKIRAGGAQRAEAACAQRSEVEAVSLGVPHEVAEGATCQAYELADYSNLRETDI
Protocol: as §1

Alpha2A = target: T6, Alpha2A (Homo sapiens, UniProt P08913)
T6 construct: NIMH PDSP
T6 sequence (P08913 whole entry): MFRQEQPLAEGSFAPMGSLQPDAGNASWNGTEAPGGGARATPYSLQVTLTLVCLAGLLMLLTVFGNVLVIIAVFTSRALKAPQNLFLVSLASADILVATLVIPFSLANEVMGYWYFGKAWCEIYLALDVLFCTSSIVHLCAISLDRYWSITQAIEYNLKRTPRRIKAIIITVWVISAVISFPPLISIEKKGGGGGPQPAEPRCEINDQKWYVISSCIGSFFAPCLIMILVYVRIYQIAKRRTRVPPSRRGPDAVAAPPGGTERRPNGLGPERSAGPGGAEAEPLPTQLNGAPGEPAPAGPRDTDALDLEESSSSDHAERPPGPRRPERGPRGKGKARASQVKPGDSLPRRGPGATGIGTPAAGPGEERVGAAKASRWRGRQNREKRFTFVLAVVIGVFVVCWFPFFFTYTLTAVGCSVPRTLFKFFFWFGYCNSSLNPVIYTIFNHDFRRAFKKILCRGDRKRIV
Protocol: as §1

Alpha2B = target: T7, Alpha2B (Homo sapiens, UniProt P18089)
T7 construct: NIMH PDSP
T7 sequence (P18089 whole entry): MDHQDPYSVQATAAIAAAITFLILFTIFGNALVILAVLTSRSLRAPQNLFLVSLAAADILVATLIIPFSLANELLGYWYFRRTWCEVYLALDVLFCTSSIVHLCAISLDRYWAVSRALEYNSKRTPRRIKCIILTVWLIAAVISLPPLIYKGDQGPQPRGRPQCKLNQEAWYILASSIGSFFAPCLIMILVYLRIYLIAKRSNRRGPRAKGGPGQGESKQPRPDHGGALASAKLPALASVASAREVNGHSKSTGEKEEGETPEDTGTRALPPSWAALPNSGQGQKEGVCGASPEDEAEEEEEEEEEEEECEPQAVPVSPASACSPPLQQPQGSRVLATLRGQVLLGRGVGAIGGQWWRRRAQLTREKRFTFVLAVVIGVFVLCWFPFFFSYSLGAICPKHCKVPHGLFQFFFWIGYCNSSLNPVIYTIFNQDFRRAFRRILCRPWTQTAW
Protocol: as §1

BZP = target: BZP
Protocol: as §1

Beta1 = target: T8, Beta1 (Homo sapiens, UniProt P08588)
T8 construct: NIMH PDSP
Protocol: as §1

Beta3 = target: T9, Beta3 (Homo sapiens, UniProt P13945)
T9 construct: NIMH PDSP
Protocol: as §1

CB2 = target: T10, CB2 (Homo sapiens, UniProt P34972)
T10 construct: NIMH PDSP
Protocol: as §1

D1 = D1 (Homo sapiens, UniProt P21728)
D1, sequence (P21728 whole entry): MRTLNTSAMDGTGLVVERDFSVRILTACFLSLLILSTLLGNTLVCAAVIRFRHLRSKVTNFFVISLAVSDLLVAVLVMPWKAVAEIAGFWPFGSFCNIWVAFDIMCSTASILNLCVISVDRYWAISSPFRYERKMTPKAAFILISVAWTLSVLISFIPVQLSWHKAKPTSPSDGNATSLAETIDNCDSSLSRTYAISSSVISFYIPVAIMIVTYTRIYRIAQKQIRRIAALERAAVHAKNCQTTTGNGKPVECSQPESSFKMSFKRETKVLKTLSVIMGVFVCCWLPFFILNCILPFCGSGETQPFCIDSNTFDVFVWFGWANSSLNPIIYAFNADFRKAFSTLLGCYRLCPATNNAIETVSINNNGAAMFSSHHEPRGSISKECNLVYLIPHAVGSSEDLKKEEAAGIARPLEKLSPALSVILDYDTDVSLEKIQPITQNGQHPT
Protocol: as §1

D3 = D3 (Homo sapiens, UniProt P35462)
D3, sequence (P35462 whole entry): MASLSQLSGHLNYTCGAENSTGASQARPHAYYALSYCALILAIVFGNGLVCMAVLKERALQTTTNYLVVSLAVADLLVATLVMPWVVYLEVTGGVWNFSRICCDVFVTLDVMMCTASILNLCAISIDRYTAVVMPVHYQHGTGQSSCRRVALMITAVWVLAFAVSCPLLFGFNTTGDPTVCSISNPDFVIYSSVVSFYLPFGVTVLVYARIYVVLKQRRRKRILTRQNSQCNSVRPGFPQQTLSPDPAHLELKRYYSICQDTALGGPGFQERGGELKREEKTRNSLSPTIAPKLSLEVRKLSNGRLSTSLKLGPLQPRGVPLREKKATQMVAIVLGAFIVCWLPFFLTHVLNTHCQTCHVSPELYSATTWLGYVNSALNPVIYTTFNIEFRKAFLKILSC
Protocol: as §1

D4 = D4 (Homo sapiens, UniProt P21917)
Protocol: as §1

DOR = DOR (Homo sapiens, UniProt P41143)
Protocol: as §1

H1 = H1 (Homo sapiens, UniProt P35367)
H1, sequence (P35367 whole entry): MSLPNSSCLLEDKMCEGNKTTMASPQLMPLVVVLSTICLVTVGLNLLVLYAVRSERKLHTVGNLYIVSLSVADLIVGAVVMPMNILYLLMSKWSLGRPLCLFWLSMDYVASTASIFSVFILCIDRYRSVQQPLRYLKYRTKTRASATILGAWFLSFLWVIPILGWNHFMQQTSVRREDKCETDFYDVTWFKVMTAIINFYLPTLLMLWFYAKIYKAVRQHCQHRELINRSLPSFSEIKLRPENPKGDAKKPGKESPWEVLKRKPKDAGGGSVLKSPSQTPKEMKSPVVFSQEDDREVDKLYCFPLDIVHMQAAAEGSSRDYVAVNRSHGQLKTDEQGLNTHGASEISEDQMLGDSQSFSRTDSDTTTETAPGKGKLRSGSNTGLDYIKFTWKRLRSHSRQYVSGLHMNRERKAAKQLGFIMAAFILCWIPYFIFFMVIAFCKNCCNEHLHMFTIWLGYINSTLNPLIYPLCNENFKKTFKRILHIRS
Protocol: as §1

H2 = H2 (Homo sapiens, UniProt P25021)
Protocol: as §1

H4 = H4 (Homo sapiens, UniProt Q9H3N8)
Protocol: as §1

KOR = KOR (Homo sapiens, UniProt P41145)
KOR, sequence (P41145 whole entry): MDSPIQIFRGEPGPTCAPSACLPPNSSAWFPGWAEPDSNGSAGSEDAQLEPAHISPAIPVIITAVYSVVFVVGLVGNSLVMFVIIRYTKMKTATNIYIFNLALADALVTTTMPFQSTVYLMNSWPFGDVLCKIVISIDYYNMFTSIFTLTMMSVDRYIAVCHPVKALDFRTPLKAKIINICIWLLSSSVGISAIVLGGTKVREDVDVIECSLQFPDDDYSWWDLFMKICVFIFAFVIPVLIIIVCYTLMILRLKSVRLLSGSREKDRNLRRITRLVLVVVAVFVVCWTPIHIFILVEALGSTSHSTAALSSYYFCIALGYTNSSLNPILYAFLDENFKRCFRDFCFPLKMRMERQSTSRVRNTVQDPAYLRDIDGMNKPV
Protocol: as §1

M2 = M2 (Homo sapiens, UniProt P08172)
Protocol: as §1

M4 = M4 (Homo sapiens, UniProt P08173)
M4, sequence (P08173 whole entry): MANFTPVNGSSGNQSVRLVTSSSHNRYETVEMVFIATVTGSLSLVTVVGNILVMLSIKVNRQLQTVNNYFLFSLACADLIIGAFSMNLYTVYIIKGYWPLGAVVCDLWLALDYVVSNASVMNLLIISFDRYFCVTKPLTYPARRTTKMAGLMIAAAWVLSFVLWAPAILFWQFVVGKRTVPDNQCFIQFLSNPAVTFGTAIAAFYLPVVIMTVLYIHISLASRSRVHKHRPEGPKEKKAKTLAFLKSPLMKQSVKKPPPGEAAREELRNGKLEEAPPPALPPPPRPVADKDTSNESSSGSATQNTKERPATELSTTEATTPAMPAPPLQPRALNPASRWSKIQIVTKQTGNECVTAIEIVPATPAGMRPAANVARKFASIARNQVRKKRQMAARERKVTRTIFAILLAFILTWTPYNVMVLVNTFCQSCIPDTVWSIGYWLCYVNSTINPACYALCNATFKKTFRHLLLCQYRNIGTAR
Protocol: as §1

M5 = M5 (Homo sapiens, UniProt P08912)
Protocol: as §1

MOR = MOR (Homo sapiens, UniProt P35372)
MOR, sequence (P35372 whole entry): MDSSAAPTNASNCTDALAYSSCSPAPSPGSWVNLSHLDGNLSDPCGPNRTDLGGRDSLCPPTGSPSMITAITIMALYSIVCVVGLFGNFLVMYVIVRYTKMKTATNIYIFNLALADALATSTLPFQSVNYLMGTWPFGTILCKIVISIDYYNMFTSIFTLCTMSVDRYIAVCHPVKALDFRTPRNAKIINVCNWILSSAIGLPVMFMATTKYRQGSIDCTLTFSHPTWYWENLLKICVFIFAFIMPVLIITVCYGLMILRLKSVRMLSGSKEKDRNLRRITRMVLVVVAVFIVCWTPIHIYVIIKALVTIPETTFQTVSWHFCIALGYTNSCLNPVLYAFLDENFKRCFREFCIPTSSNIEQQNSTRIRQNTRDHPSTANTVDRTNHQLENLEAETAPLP
Protocol: as §1

[1] = read-out: Ki #1-#5 (individual assays)
[2] = read-out: log Ki (individual assays) (converted)
[3] = read-out: pKi (mean) (converted)

c1ccc2c(c1)N=C(N1CCNCC1)c1ccccc1N2 [C21, 11-(1-piperazinyl)-5H-dibenzo[b,e][1,4]diazepine]
Ki (5-HT1A; read-out: Ki): 80.9 nM | Ki (5-HT1A; [1]): 64.5 nM and 144 nM and 57 nM | Ki (5-HT1D; read-out: Ki): 972 nM | Ki (5-HT1D; [1]): 1190 nM and 785 nM and 983 nM | Ki (5-HT1E; read-out: Ki): 206 nM | Ki (5-HT1E; [1]): 325 nM and 263 nM and 68 nM and 117 nM and 547 nM | Ki (5-HT2A; read-out: Ki): 44.3 nM | Ki (5-HT2A; [1]): 58.9 nM and 51 nM | Ki (5-HT2A; [2]): 28.8 nM | Ki (5-HT3; read-out: Ki): 360 nM | Ki (5-HT3; [1]): 858 nM and 321 nM and 169 nM | Ki (5-HT4; read-out: Ki): > 10000 nM | Ki (5-HT4; [1]): > 10000 nM | Ki (5-HT6; read-out: Ki): 266 nM | Ki (5-HT6; [1]): 421 nM and 193 nM and 232 nM | Ki (5-HT7; read-out: Ki): 107 nM | Ki (5-HT7; [1]): 104 nM and 77 nM and 152 nM | log Ki (individual assays) (Alpha1D): <5 | Ki (Alpha1D; read-out: Ki): > 10000 nM | Ki (Alpha1D; [1]): > 10000 nM | Ki (Alpha2A; read-out: Ki): 1770 nM | Ki (Alpha2A; [1]): 4750 nM and 809 nM and 1440 nM | Ki (Alpha2B; read-out: Ki): 474 nM | Ki (Alpha2B; [1]): 1520 nM and 157 nM and 247 nM and 857 nM | log Ki (individual assays) (BZP): 5.27 and 5.61 and 5.12 and 5.10 and 5.33 | pKi (mean) (BZP): 5.29 | Ki (BZP; read-out: Ki): 5180 nM | Ki (BZP; [1]): 4720 nM and 5310 nM and 2440 nM and 7610 nM and 7980 nM | Ki (Beta1; read-out: Ki): > 10000 nM | Ki (Beta1; [1]): > 10000 nM | Ki (Beta3; read-out: Ki): > 10000 nM | Ki (Beta3; [1]): > 10000 nM | Ki (CB2; read-out: Ki): > 10000 nM | Ki (CB2; [1]): > 10000 nM | Ki (D1; read-out: Ki): 479 nM | Ki (D1; [1]): 525 nM and 316 nM and 661 nM | Ki (D3; read-out: Ki): 870 nM | Ki (D3; [1]): 1520 nM and 1160 nM and 372 nM | Ki (D4; read-out: Ki): 2050 nM | Ki (D4; [1]): 1380 nM and 896 nM and 4050 nM and 3570 nM | Ki (DOR; read-out: Ki): 387 nM | Ki (DOR; [1]): 685 nM and 241 nM and 373 nM and 363 nM | Ki (H1; [1]): 4.5 nM | Ki (H1; [2]): 3.47 nM and 2.4 nM | Ki (H1; [3]): 3.39 nM | Ki (H2; read-out: Ki): 289 nM | Ki (H2; [1]): 257 nM and 511 nM and 184 nM | Ki (H4; read-out: Ki): > 10000 nM | Ki (H4; [1]): > 10000 nM | Ki (H4; [3]): > 10000 nM | Ki (KOR; read-out: Ki): 2980 nM | Ki (KOR; [1]): 6690 nM and 2680 nM and 1470 nM | Ki (M2; read-out: Ki): 146 nM | Ki (M2; [1]): 246 nM and 139 nM and 91 nM | Ki (M4; read-out: Ki): 1880 nM | Ki (M4; [1]): 1560 nM and 2440 nM and 3020 nM and 734 nM and 2800 nM | Ki (M5; read-out: Ki): 421 nM | Ki (M5; [1]): 175 nM and 395 nM and 1080 nM | Ki (MOR; read-out: Ki): 3880 nM | Ki (MOR; [1]): 2230 nM and 4820 nM and 5430 nM
